Data set [1] relates to human peripheral blood mononuclear cells (PBMC). The data set can be described thus: Effects on human T-cell proliferation in vitro (3H-thymidine incorporation). The class given is cell-based. The following applies: Homo sapiens, PBMC, read-out: Percentage of inhibition of proliferation of stimulated PBMC. On the procedure: The influence of the various test compounds at two different concentrations (50 μM and 10 μM) on cell proliferation of human peripheral blood mononuclear cells (PBMC) was assessed. […] The cells were pulsed with 1 μCi of ^3H-thymidine (Amersham, USA) per well during the last 18 h of the culture, and were harvested on the 96-well filter (Packard Bioscience, USA) using a multiple cell harvester (Packard, USA). The incorporation of ^3H-thymidine in activated cells were measured using TopCount NXT (Packard, USA). […] The positive control refers to LPS-, PMA- or zymosan-stimulated samples that were not treated with test compounds.
(Uptake of a labelled nucleoside into DNA is a usual measure of proliferation.)

The test system of a further data set is Hep G2. The data set can be described thus: Cytotoxicity assay (MTT), Hep G2 cell line. The format is cell-based. The following applies: 24 h. Summed up: (§1)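 Viability was read as MTT-formazan absorbance at 490 nm after 0.5-2 h with reagent. This followed 24 h compound exposure (50 μM, 12.5 μM) at 37° C in RPM medium. Result expressed as OD490 treated over untreated cells ×100.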

The subject of a further data set is A549. The data set can be described thus: Cytotoxicity assay (MTT), A549 cell line. The format is cell-based. The following applies: 24 h. A digest of the protocol: as §1
For data set [2], the system named is TNF-α. Description: Lipopolysaccharide induced TNF-α production in Balb/cJ mice. To be noted: Mus musculus, ip, 1.5 h, read-out: % inhibition of TNF-α production (plasma). The class given is in vivo. On the procedure: Male Balb/cJ mice (Iffa Credo, France) weighing 25-33 g were randomly grouped (n=7 in test group, 7 in positive control group, 4 in negative control group). Test compounds, as well as vehicle [0.125% carboxymethyl-cellulose (Sigma, USA)], were administered to the mice intraperitoneally. Test compounds were administered at a dose of 10 mg/kg of body weight, in a volume of 10 mL/kg of body weight. Thirty minutes later, a sterile solution of lipopolysaccharide (LPS) (Sigma, USA) in saline was intraperitoneally administered at a concentration and volume of 25 μg/0.2 mL/mouse to each animal, except those in negative control. Ninety minutes following administration, all animals were sacrificed by puncturing a. carotis communis. The plasma concentration of TNF-α was determined by sandwich ELISA, using capture and detection antibodies (R&D, USA) according to manufacturer's recommendations. Results are presented in the following table as percent of inhibition of TNF-α production in comparison to the positive control (stimulated, but untreated animals).

The test system of data set [3] is TNF-α. Description: Inhibition of TNF-α production by stimulated human peripheral blood leukocytes in vitro. The format is cell-based. The following applies: Homo sapiens, Leukocyte, read-out: Percentage of inhibition of TNF-α production. A digest of the protocol: (§2)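 Sandwich ELISA of supernatant cytokines; % inhibition = (1 − sample/stimulated untreated control)×100. Dextran-isolated human PBL were pretreated 2 h with 10 or 50 μM compound, then challenged overnight with LPS (2 μg/mL), PMA (1 μg/mL) or zymosan (120 μg/mL).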

The subject of another data set is IL-1α. Description: Inhibition of IL-1 production by stimulated human peripheral blood leukocytes in vitro. The format is cell-based. To be noted: Homo sapiens, Leukocyte, read-out: Percentage of inhibition of IL-1α production.
For the next data set, the system named is IL-6. The data set can be described thus: Inhibition of IL-6 production by stimulated human peripheral blood leukocytes in vitro. The format is cell-based. The following applies: Homo sapiens, Leukocyte, read-out: Percentage of inhibition of IL-6 production. A digest of the protocol: as §2
The next data set relates to IL-8. The data set can be described thus: Inhibition of IL-8 production by stimulated human peripheral blood leukocytes in vitro. The class given is cell-based. To be noted: Homo sapiens, Leukocyte, read-out: Percentage of inhibition of IL-8 production. A digest of the protocol: as §2
The mark [4] stands for this setting: 10 mg/kg intraperitoneally, 30 min before LPS, 90 min after LPS.

Structures are written as SMILES. Like-named read-outs stand apart in the source and are kept apart here.

As to `CC[C@H]1OC(=O)[C@H](C)[C@@H](O[C@H]2C[C@@](C)(OC)[C@@H](OC(=O)CCN(CC)CC)[C@H](C)O2)[C@H](C)[C@@H](O[C@@H]2O[C@H](C)C[C@H](N(C)C)[C@H]2O)[C@](C)(O)C[C@@H](C)NC(=O)[C@H](C)[C@@H](O)[C@]1(C)O` [Example 2, 4″-O-(3-Diethylamino-propionyl)-8a-aza-8a-homoerythromycin A], the inhibition at 10 µM in data set [1] (PHA) was determined as 35%; in data set [1] (PMA + iono.), 1%. Besides, the inhibition at 50 µM came to 41% in data set [1] (PHA) and 31% in data set [1] (PMA + iono.). The “Percentage of inhibition of cell growth” value in the data set on Hep G2 (12.5 μM) is 0%; in the data set on Hep G2 (50 μM), 1%; in the data set on A549 (12.5 μM), 0%; in the data set on A549 (50 μM), 3%. The inhibition in vivo at 10 mg/kg with TNF-α [2] (setting [4]) was 59%.
In the case of `CC[C@H]1OC(=O)[C@H](C)[C@@H](O[C@H]2C[C@@](C)(OC)[C@@H](OC(=O)CCN(CC)CC)[C@H](C)O2)[C@H](C)[C@@H](O[C@@H]2O[C@H](C)C[C@H](N(C)C)[C@H]2O)[C@](C)(OC)C[C@@H](C)C(=O)[C@H](C)[C@H]2N(C)C(=O)O[C@]12C` [Example 10, 11,12-(N-Methyl-carbamate)-11,12-dideoxy-4-O-(3-diethylaminopropionyl)-6-O-methyl-erythromycin A], the inhibition at 10 µM stood at 49% in the data set with TNF-α [3] (LPS-stimulated PBL); 41% in the data set on TNF-α [3] (PMA-stimulated PBL); 14% with TNF-α [3] (zymosan-stimulated PBL); 44% in the data set with IL-1α (LPS-stimulated PBL); 30% in the data set with IL-1α (PMA-stimulated PBL); 48% in the data set on IL-1α (zymosan-stimulated PBL). Besides, the inhibition at 10 µM with IL-6 (LPS-stimulated PBL) came to 14%; in the data set with IL-6 (PMA-stimulated PBL), 12%; in the data set with IL-6 (zymosan-stimulated PBL), 19%; in the data set on IL-8 (LPS-stimulated PBL), 27%; with IL-8 (PMA-stimulated PBL), 0%; with IL-8 (zymosan-stimulated PBL), 28%. Besides, the values for the inhibition at 10 µM in data set [1] (PHA) and in data set [1] (PMA + iono.) were 71% and 3%, respectively. Besides, the inhibition at 50 µM with TNF-α [3] (LPS-stimulated PBL) is 86%; with TNF-α [3] (PMA-stimulated PBL) it was 62%; in the data set on TNF-α [3] (zymosan-stimulated PBL), 72%; in the data set on IL-1α (LPS-stimulated PBL), 41%; with IL-1α (PMA-stimulated PBL), 0%; with IL-1α (zymosan-stimulated PBL) it was 49%. The inhibition at 50 µM turned out to be 71% with IL-6 (LPS-stimulated PBL); 18% in the data set with IL-6 (PMA-stimulated PBL); 39% with IL-6 (zymosan-stimulated PBL); 52% in the data set on IL-8 (LPS-stimulated PBL); 42% with IL-8 (PMA-stimulated PBL); 36% in the data set on IL-8 (zymosan-stimulated PBL). For the same compound, the inhibition at 50 µM in data set [1] (PHA) was found to be 98%; in data set [1] (PMA + iono.) it was 100%. Further, the “Percentage of inhibition of cell growth” value is listed as 0% with Hep G2 (12.5 μM), 5% with Hep G2 (50 μM), 12% in the data set on A549 (12.5 μM) and 6% in the data set with A549 (50 μM).
`CC[C@H]1OC(=O)[C@H](C)[C@@H](O[C@H]2C[C@@](C)(OC)[C@@H](OC(=O)CCN3CCN(CCN(CC)CC)CC3)[C@H](C)O2)[C@H](C)[C@@H](O[C@@H]2O[C@H](C)C[C@H](N(C)C)[C@H]2O)[C@](C)(OC)C[C@@H](C)C(=O)N[C@H](C)[C@@H](O)[C@]1(C)O` [Example 14]: the inhibition at 10 µM turned out to be 23% in data set [1] (PHA) and 24% in data set [1] (PMA + iono.). The inhibition at 50 µM in data set [1] (PHA) was determined as 99%; in data set [1] (PMA + iono.), 91%. The “Percentage of inhibition of cell growth” value came to 0% in the data set on Hep G2 (12.5 μM), 0% in the data set with Hep G2 (50 μM), 4% with A549 (12.5 μM) and 0% with A549 (50 μM). Moreover, the inhibition in vivo at 10 mg/kg with TNF-α [2] (setting [4]) was 96%.
On to `CC[C@H]1OC(=O)[C@H](C)[C@@H](O[C@H]2C[C@@](C)(OC)[C@@H](OC(=O)CCN3CCN(CCCN(CC)CC)CC3)[C@H](C)O2)[C@H](C)[C@@H](O[C@@H]2O[C@H](C)C[C@H](N(C)C)[C@H]2O)[C@](C)(OC)C[C@@H](C)C(=O)N[C@H](C)[C@@H](O)[C@]1(C)O` [Example 31], for which the inhibition at 10 µM was 23% in data set [1] (PHA) and 24% in data set [1] (PMA + iono.). Also, the inhibition at 50 µM amounted to 99% in data set [1] (PHA) and 91% in data set [1] (PMA + iono.). For the same compound, the “Percentage of inhibition of cell growth” value in the data set on Hep G2 (12.5 μM), in the data set with Hep G2 (50 μM), in the data set on A549 (12.5 μM) and in the data set with A549 (50 μM) was 0% throughout. Besides, in the data set on TNF-α [2] (setting [4]), the inhibition in vivo at 10 mg/kg was 92%.
As to `CC[C@H]1OC(=O)[C@H](C)[C@@H](O[C@H]2C[C@@](C)(OC)[C@@H](OCCCN(CC)CC)[C@H](C)O2)[C@H](C)[C@@H](O[C@@H]2O[C@H](C)C[C@H](N(C)C)[C@H]2O)[C@](C)(OC)C[C@@H](C)C(=O)N[C@H](C)[C@@H](O)[C@]1(C)O` [Example 73, 4″-O-(3-Diethylaminopropyl)-6-O-methyl-9a-aza-9a-homoerythromycin A], the “Percentage of inhibition of cell growth” value with Hep G2 (12.5 μM), in the data set with Hep G2 (50 μM), with A549 (12.5 μM) and in the data set with A549 (50 μM) was 0% each time. Besides, the inhibition in vivo at 10 mg/kg with TNF-α [2] stood at 90%.

The record behind these values is patent US8080529B2, “Macrolides with anti-inflammatory activity” (Glaxo Group Limited, priority 2005, dated 2011).
